Experimental findings from patent US12496297B1, “Compositions of autophagy modulating agents and uses thereof” (Washington University, priority 2020, dated 2025) are described below.

The first test deals with α1-antitrypsin Z variant (ATZ). Briefly: Steady state levels of ATZ in HTO/Z cell line (immunoblot); activity of G2 analogs. Type of test: cell-based, human. As to conditions: G2 and G2 analogs; positive activity if shown to have any activity, not quantified. On the procedure: For experiments with G2 analogs, Tet-off inducible cell lines were cultured in absence of doxycycline for at least 12 days to ensure expression of […] or its variants. The cells were then sub-cultured into separate monolayers in fresh complete growth medium and incubated for 48 hours in the absence or presence of G2 analog. […] All compounds available commercially were purchased except for G2-22, which was synthesized with routine chemistry.
Cells were lysed in NP40 buffer and then separated into insoluble and soluble fractions according to a previously established technique. Samples were subjected to immunoblot analysis for AT and GAPDH. For immmunoblot analysis to detect AT or GAPDH, cells were lysed in 50 mM Tris-HCl, 150 mM NaCl, 1% NP-40, pH 8.0. Protein concentrations were determined by BCA protein assay (Pierce Biotechnology, Rockford, IL). […] The membranes were blocked in 5% milk and then incubated overnight at 4° C. with primary antibody for AT (1:1000, Diasorin), LC3 (1:2000, Sigma), p62 (1:1000, Cell signaling, Danvers, MA), ATG5 (1:1000, Cell signaling), mTOR substrate sampler (1:1000 for all antibodies, Cell signaling). Donkey anti-goat Ig (Jackson Labs, Bar Harbor, ME), goat anti-rabbit lg (1:50,000), or goat anti-mouse Ig (1:50,000) were used as secondary antibodies in TBST at RT, 1 hour. Blots were visualized with ECL or West Femto from Pierce. Membranes were re-probed with GAPDH (1:5000, Sigma) as loading control. Insoluble samples were stained with Gel Code Blue as loading control.
Background: In western blotting, separated proteins are transferred to a membrane and probed.
For the compound `CNC(=O)c1cc(Cl)ccc1OC` [G2-3, 5-chloro-2-methoxy-N-methylbenzamide], the outcome was Active.
Consider `CNC(=O)c1cc(F)ccc1OC` [G2-4, 5-fluoro-2-methoxy-N-methylbenzamide], for which the result was Inactive.
Consider `NC(=O)c1cc(Cl)ccc1OC(F)(F)F` [G2-6, 5-chloro-2-(trifluoromethoxy)benzamide], for which the result was Inactive.
On the same count and under the same terms, for `CN1CCNC(=O)c2cc(Cl)ccc21` [G2-11, 7-chloro-1-methyl-1,2,3,4-tetrahydro-5H-benzo[e][1,4]diazepin-5-one] the value was “Inactive”; for `CNC(=O)c1cc(Cl)ccc1OC1CC1` [G2-12, 5-chloro-2-cyclopropoxy-N-methylbenzamide], “Active”; for `CNC(=O)c1cc(Cl)ccc1OC1CCN(C2CCCC2)CC1` [G2-12-2, 5-chloro-2-((1-cyclopentylpiperidin-4-yl)oxy)-N-methylbenzamide], “Inactive”.
Turning to `CNC(=O)c1cc(Cl)ccc1OCc1ccccc1` [G2-12-3, 2-(benzyloxy)-5-chloro-N-methylbenzamide], the outcome was Inactive.
With `COc1ccc(Cl)cc1C(=O)N(C)C` [G2-13, 5-chloro-2-methoxy-N,N-dimethylbenzamide], the result was Active.
With `COc1ccc(Cl)cc1C(=O)NCC(C)C` [G2-14, 5-chloro-N-isobutyl-2-methoxybenzamide], the outcome was Inactive.
For the compound `COc1ccc(Cl)cc1C(=O)NCCCCO` [G2-15, 5-chloro-N-(4-hydroxybutyl)-2-methoxybenzamide], the outcome was Inactive.
On the same count and under the same terms, the value for `CNC(=O)c1cc(Cl)ccc1Oc1ccc(Cl)cc1` [G2-16, 5-chloro-2-(4-chlorophenoxy)-N-methylbenzamide] was “Inactive”; that for `CNC(=O)c1cc(Cl)ccc1OCCC(C)C` [G2-17, 5-chloro-2-(isopentyloxy)-N-methylbenzamide] was “Inactive”; that for `Cn1ccc2c(Cl)cccc2c1=O` [G2-22, 5-chloro-2-methylisoquinolin-1(2H)-one] was “Active”.
`Cn1ccc2ccc(Cl)cc2c1=O` [G2-23, 7-chloro-2-methylisoquinolin-1(2H)-one]: the result was Inactive.
For the compound `Cn1ccc2cccc(Cl)c2c1=O` [G2-24, 8-chloro-2-methylisoquinolin-1(2H)-one], the result was Inactive.
Take `O=c1[nH]ccc2cc(Cl)ccc12` [G2-25, 6-chloroisoquinolin-1(2H)-one]: the outcome was Active.
For the compound `Cn1cnc2cc(Cl)ccc2c1=O` [G2-27, 7-chloro-3-methylquinazolin-4(3H)-one], the result was Inactive.
On to `CN1Cc2cc(Cl)ccc2C1=O` [G2-28, 5-chloro-2-methylisoindolin-1-one], for which the result was Active.
Consider `Cn1ccc2cc(S(C)(=O)=O)ccc2c1=O` [G2-29, 2-methyl-6-(methylsulfonyl)isoquinolin-1(2H)-one], for which the result was Active.
On to `COc1ccc2c(=O)n(C)ccc2c1` [G2-30, 6-methoxy-2-methylisoquinolin-1(2H)-one], for which the outcome was Active.
Still for that read-out and setting: the value for `Cn1ccc2cc(C#N)ccc2c1=O` [G2-31, 2-methyl-1-oxo-1,2-dihydroisoquinoline-6-carbonitrile] was “Inactive”; that for `Cn1ccc2ccccc2c1=O` [G2-34, 2-methylisoquinolin-1(2H)-one] was “Inactive”; that for `Cn1c(=O)ccc2cc(Cl)ccc21` [G2-37, 6-chloro-1-methylquinolin-2(1H)-one] was “Active”.
With `Cc1cn(C)c(=O)c2ccc(Cl)cc12` [G2-38, 6-chloro-2,4-dimethylisoquinolin-1(2H)-one], the outcome was Inactive.
Same read-out and setting: for `Cn1ccc2cc(-c3ccccn3)ccc2c1=O` [G2-39, 2-methyl-6-(pyridin-2-yl)isoquinolin-1(2H)-one] the value was “Inactive”; for `CNC(=O)c1cccc(Cl)c1OC` [G2-40, 3-chloro-2-methoxy-N-methylbenzamide], “Inactive”; for `Cn1ccc2cc(-c3ccccc3)ccc2c1=O` [G2-41, 2-methyl-6-phenylisoquinolin-1(2H)-one], “Active”.
On to `Cn1ccc2cc(-c3ccncc3)ccc2c1=O` [G2-42, 2-methyl-6-(pyridin-4-yl)isoquinolin-1(2H)-one], for which the result was Active.
Consider `Cn1ccc2cc(-c3cccnc3)ccc2c1=O` [G2-43, 2-methyl-6-(pyridin-3-yl)isoquinolin-1(2H)-one], for which the outcome was Inactive.
For `CN(C)c1ccc2c(=O)n(C)ccc2c1` [G2-44, 6-(dimethylamino)-2-methylisoquinolin-1(2H)-one], the result was Inactive.
Still for that read-out and setting: the value for `Cn1ccc2cc(N3CCCC3)ccc2c1=O` [G2-45, 2-methyl-6-(pyrrolidin-1-yl)isoquinolin-1(2H)-one] was “Active”; that for `Cn1ccc2cc(N3CC4(COC4)C3)ccc2c1=O` [G2-46, 2-methyl-6-(2-oxa-6-azaspiro[3.3]heptan-6-yl)isoquinolin-1(2H)-one] was “Inactive”; that for `Cn1ccc2cc(Nc3ccccc3)ccc2c1=O` [G2-47, 2-methyl-6-(phenylamino)isoquinolin-1(2H)-one] was “Inactive”.
`CN(c1ccccc1)c1ccc2c(=O)n(C)ccc2c1` [G2-48, 2-methyl-6-(methyl(phenyl)amino)isoquinolin-1(2H)-one]: the result was Active.
Same read-out and setting: the value for `Cn1ccc2cc(Nc3ccccn3)ccc2c1=O` [G2-49, 2-methyl-6-(pyridin-2-ylamino)isoquinolin-1(2H)-one] was “Inactive”.
Take `Cn1ncc2cc(Cl)ccc2c1=O` [G2-51, 6-chloro-2-methylphthalazin-1(2H)-one]: the outcome was Active.
Same read-out and setting: for `CCn1ccc2cc(Cl)ccc2c1=O` [G2-52, 6-chloro-2-ethylisoquinolin-1(2H)-one] the value was “Inactive”; for `O=c1c2ccc(Cl)cc2ccn1-c1ccccc1` [G2-53, 6-chloro-2-phenylisoquinolin-1(2H)-one], “Inactive”; for `Cn1c(=O)ccc2ccc(Cl)cc21` [G2-54, 7-chloro-1-methylquinolin-2(1H)-one], “Active (Highly Active)”.
On to `CNC(=O)c1ccc(Cl)cc1OC` [G2-55, 4-chloro-2-methoxy-N-methylbenzamide], for which the outcome was Inactive.
Turning to `Cn1c(=O)ccc2cc(Cl)ccc21` [G2-58, 6-chloro-1-methylquinolin-2(1H)-one], the outcome was Inactive.
As for `Cn1ccc2cc(-c3ncccn3)ccc2c1=O` [G2-59, 2-methyl-6-(pyrimidin-2-yl)isoquinolin-1(2H)-one], the result was Inactive.
Turning to `CCCCc1ccc2c(=O)n(C)ccc2c1` [G2-60, 6-butyl-2-methylisoquinolin-1(2H)-one], the result was Inactive.
Turning to `Cn1ccc2cc(N3CCCCC3)ccc2c1=O` [G2-61, 2-methyl-6-(piperidin-1-yl)isoquinolin-1(2H)-one], the result was Inactive.
Consider `Cn1ccc2cc(N3CCC(c4ccccc4)CC3)ccc2c1=O` [G2-62, 2-methyl-6-(4-phenylpiperidin-1-yl)isoquinolin-1(2H)-one], for which the result was Inactive.
As to `Cn1ccc2cc(-c3ccc(Cl)cc3)ccc2c1=O` [G2-63, 6-(4-chlorophenyl)-2-methylisoquinolin-1(2H)-one], the outcome was Inactive.
Consider `Cn1ccc2cc(-c3ccn[nH]3)ccc2c1=O` [G2-65, 2-methyl-6-(1H-pyrazol-5-yl)isoquinolin-1(2H)-one], for which the outcome was Inactive.
For the compound `Cn1ccc2cc(S(N)(=O)=O)ccc2c1=O` [G2-67, 2-methyl-1-oxo-1,2-dihydroisoquinoline-6-sulfonamide], the outcome was Inactive.
For the compound `O=c1ccc2ccc(Cl)cc2[nH]1` [G2-69, 7-chloroquinolin-2(1H)-one], the Activity entry is on record as “Active (Most Highly Active)”.
Regarding `O=c1ncc2cc(Cl)ccc2[nH]1` [G2-71, 6-chloroquinazolin-2(1H)-one], the result was Inactive.
Consider `Cn1c(=O)ccc2ccc(-c3cccnc3)cc21` [G2-83, 1-methyl-7-(pyridin-3-yl)quinolin-2(1H)-one], for which the result was Inactive.
Regarding `Cn1c(=O)ccc2ccc(Nc3ccccn3)cc21` [G2-91, 1-methyl-7-(pyridin-2-ylamino)quinolin-2(1H)-one], the result was Inactive.
Take `O=c1ccc2ccc(F)cc2[nH]1` [G2-124, 7-fluoroquinolin-2(1H)-one]: the result was Active.
As to `O=c1ccc2ccc(C3CC3)cc2[nH]1` [G2-156, 7-cyclopropylquinolin-2(1H)-one], the outcome was Active.
Regarding `O=c1ccc2c(N3CCCCC3)cc(Cl)cc2[nH]1` [G2-195, 7-chloro-5-(piperidin-1-yl)quinolin-2(1H)-one], the outcome was Active.

The test is the same for the next values; noted with them: TABLE 1; assay not given.
For `O=c1ccc2ccc(Cl)cc2[nH]1` [G2-69, 7-chloroquinolin-2(1H)-one], the IC50 – broadly, the midpoint of a concentration-inhibition curve – lay in the range of 100 to 1000 nM.
Compound `O=c1ccc2ccc(F)cc2[nH]1` [G2-124, 7-fluoroquinolin-2(1H)-one] returned an IC50 of 1000 to 10000 nM.
As for `O=c1ccc2ccc(C3CC3)cc2[nH]1` [G2-156, 7-cyclopropylquinolin-2(1H)-one], the 50% inhibitory concentration (IC50) was 1000 to 10000 nM.
Still for that read-out and setting: for `O=c1ccc2c(N3CCCCC3)cc(Cl)cc2[nH]1` [G2-195, 7-chloro-5-(piperidin-1-yl)quinolin-2(1H)-one] the value was 1000 to 10000 nM.
